Values after ≈ are worked out from the molar mass of the structure shown. Where two headings read alike, the source gives them in different places.
Legend:
[1] = biological target: T1, GE23077-resistant Escherichia coli RNAP derivative ([Asp565]β-RNAP) (Escherichia coli, UniProt P0A8V2, E565D); assay: biochemical
T1 construct: made in house
Procedure: Fluorescence-detected RNA polymerase assays with E. coli RNA polymerase were performed by a modification of the procedure of Kuhlman et al., 2004 [Kuhlman, P., Duff, H. and Galant, A. (2004) A fluorescence-based assay for multisubunit DNA-dependent RNA polymerases. Anal. Biochem. 324, 183-190]. Reaction mixtures contained (20 μl): 0-100 nM test compound, 75 nM Escherichia coli RNA polymerase σ^70 holoenzyme or Escherichia coli RNA polymerase σ^70 holoenzyme derivative (prepared as in Feklistov, A., Mekler, V., Jiang, Q., Westblade, L., Irschik, H., Jansen, R., Mustaev, A., Darst, S., and Ebright, R. (2008) Proc. Natl. Acad. Sci. USA 105, 14820-14825), 20 nM 384 bp DNA fragment containing the bacteriophage […] N25 promoter, 100 μM ATP, 100 μM GTP, 100 μM UTP, 100 μM CTP, 50 mM Tris-HCl, pH 8.0, 100 mM KCl, 10 mM MgCl2, 1 mM DTT, 10 μg/ml bovine serum albumin, and 5.5% glycerol. Reaction components other than DNA and NTPs were pre-incubated for 10 min at 37° C. […] RNA was quantified by addition of 100 μl RiboGreen RNA Quantitation Reagent (Invitrogen, Inc.; 1:500 dilution in Tris-HCl, pH 8.0, 1 mM EDTA), followed by incubation for 10 min at 25° C., followed by measurement of fluorescence intensity [excitation wavelength=485 nm and emission wavelength=535 nm; QuantaMaster QM1 spectrofluorimeter (PTI, Inc.)]. […]

[2] = test system: Acinetobacter baumannii ATCC 19606; assay: Broth microdilution MIC, A. baumannii; type: cell-based; settings: ATCC19606
From the text: (§1) Minimum inhibitory concentrations (MICs) for Staphylococcus aureus ATCC 12600, Enterococcus faecalis ATCC 19433, Acinetobacter baumannii ATCC 19606, and Escherichia coli D21f2tolc (Fralick, J. and Burns-Keliher, L. (1994) J. Bacteriol. 176, 6404-6406) were quantified using broth microdilution assays as described [Clinical and Laboratory Standards Institute (CLSI/NCCLS) (2009) Methods for Dilution Antimicrobial Susceptibility Tests for Bacteria That Grow Aerobically; Approved Standard, Eighth Edition. CM Document M07-A8 (CLIS, Wayne Pa.)].

[3] = test system: Enterococcus faecalis ATCC 19433; assay: Broth microdilution MIC, E. faecalis; type: cell-based; settings: ATCC19433
From the text: as §1

[4] = test system: Escherichia coli D21f2tolC; assay: Broth microdilution MIC, E. coli D21f2tolC; type: cell-based
From the text: as §1

[5] = biological target: T2, rifamycin-resistant Escherichia coli RNAP derivative ([Asn516]β-RNAP) (Escherichia coli, UniProt P0A8V2, D516N); assay: Fluorescence-detected RNA polymerase assay, rifamycin-resistant RNAP derivative; type: biochemical
T2 construct: made in house
Procedure: Fluorescence-detected RNA polymerase assays with E. coli RNA polymerase were performed by a modification of the procedure of Kuhlman et al., 2004 [Kuhlman, P., Duff, H. and Galant, A. (2004) A fluorescence-based assay for multisubunit DNA-dependent RNA polymerases. Anal. Biochem. 324, 183-190]. Reaction mixtures contained (20 μl): 0-100 nM test compound, 75 nM Escherichia coli RNA polymerase σ^70 holoenzyme or Escherichia coli RNA polymerase σ^70 holoenzyme derivative (prepared as in Feklistov, A., Mekler, V., Jiang, Q., Westblade, L., Irschik, H., Jansen, R., Mustaev, A., Darst, S., and Ebright, R. (2008) Proc. Natl. Acad. Sci. USA 105, 14820-14825), 20 nM 384 bp DNA fragment containing the bacteriophage […] N25 promoter, 100 μM ATP, 100 μM GTP, 100 μM UTP, 100 μM CTP, 50 mM Tris-HCl, pH 8.0, 100 mM KCl, 10 mM MgCl2, 1 mM DTT, 10 μg/ml bovine serum albumin, and 5.5% glycerol. Reaction components other than DNA and NTPs were pre-incubated for 10 min at 37° C. Reactions were carried out by addition of DNA and incubation for 5 min at 37° C., followed by addition of NTPs and incubation for 60 min at 37° C. DNA was removed by addition of 1 μl 5 mM CaCl2 and 2 U DNaseI (Ambion, Inc.), followed by incubation for 90 min at 37° C. RNA was quantified by addition of 100 μl RiboGreen RNA Quantitation Reagent (Invitrogen, Inc.; 1:500 dilution in Tris-HCl, pH 8.0, 1 mM EDTA), followed by incubation for 10 min at 25° C., followed by measurement of fluorescence intensity [excitation wavelength=485 nm and emission wavelength=535 nm; QuantaMaster QM1 spectrofluorimeter (PTI, Inc.)]. IC50 is defined as the concentration of inhibitor resulting in 50% inhibition of RNA polymerase activity.

[6] = test system: Staphylococcus aureus ATCC 12600; assay: Broth microdilution MIC, S. aureus; type: cell-based; settings: ATCC12600
From the text: as §1

| SMILES | IC50 [1] [nM] | potency relative to GE23077 on [Asp565]β RNAP ([1]; ratio of IC50s, times higher than GE23077) | MIC [2] [µg/mL] | MIC [3] [µg/mL] | MIC [4] [µg/mL] | IC50 [5] [nM] | potency relative to rifamycin SV on [Asn516]β RNAP ([5]; ratio of IC50s, times higher than rifamycin SV) [times] | MIC [6] [µg/mL] | IC50 ([5]; read-out: IC50, rifamycin-resistant derivative of Escherichia coli RNAP [Asn516]β RNAP) [nM] |
| --- | --- | --- | --- | --- | --- | --- | --- | --- | --- |
| CO[C@H]1/C=C/O[C@@]2(C)Oc3c(C)c(O)c4c(O)c(c(NC(C)C(C)C(=O)NCC5NC(=O)CNC(=O)C(O)CNC(=O)C(C(C)O)NC(=O)C(C(O)C(O)C(N)=O)NC(=O)C(C(C)C)CC(=O)C(CO)NC5=O)c(O)c4c3C2=O)NC(=O)/C(C)=C\C=C\[C@H](C)C(O)C(C)[C@@H](O)[C@@H](C)[C@H](OC(C)=O)[C@@H]1C (stereo partly drawn) [compound 3, {rifamycin SV}-NH-{descarboxy-GE23077}] | 20 | > 5,000 times | 10 (≈ 6.8 µM) | 6 (≈ 4.08 µM) | 2 (≈ 1.36 µM) | 150 | 80 | 0.05 (≈ 0.034 µM) |  |
| CO[C@H]1/C=C/O[C@@]2(C)Oc3c(C)c(O)c4c(O)c(cc(O)c4c3C2=O)NC(=O)/C(C)=C\C=C\[C@H](C)[C@H](O)[C@@H](C)[C@@H](O)[C@@H](C)[C@H](OC(C)=O)[C@@H]1C [rifamycin SV, reference compound] |  |  |  |  |  |  |  |  | 12000 |
